Measured values taken from PubChem BioAssay AID192 (DTP/NCI, 2004).
Where “and” joins values, the source holds several entries; their conditions need not be identical. Equal values may be shown once. Toxic doses and inconclusive results are not listed. How the source made its calls: active means survival T/C of 150% or more; inactive means T/C below 125% in these data.

System: BDF1 mice, B16 melanoma ip, median survival T/C
Assay: NCI In Vivo Anticancer Drug Screen. Data for tumor model B16 Melanoma (intraperitoneal) in B6D2F1 (BDF1) mice
Conditions: endpoint: median survival time, higher = longer survival
Method in brief: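 Tumor-bearing mice received test compound or vehicle. Survival or tumor size was then measured in both groups. The treated-group figure was divided by the control-group figure.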

[1] = dose: 50.0 mg/kg/injection, schedule: Q01DX009 (ip), vehicle: water
[2] = dose: 100.0 mg/kg/injection, schedule: Q01DX009 (ip), vehicle: water
[3] = dose: 12.5 mg/kg/injection, schedule: Q01DX009 (ip), vehicle: Klucel (hydroxypropylcellulose) (HPC)
[4] = dose: 25.0 mg/kg/injection, schedule: Q01DX009 (ip), vehicle: Klucel (hydroxypropylcellulose) (HPC)
[5] = dose: 200.0 mg/kg/injection, schedule: Q01DX009 (ip), vehicle: Klucel (hydroxypropylcellulose) (HPC)
[6] = dose: 100.0 mg/kg/injection, schedule: Q01DX009 (ip), vehicle: Klucel (hydroxypropylcellulose) (HPC)
[7] = dose: 1.56 mg/kg/injection, schedule: Q01DX009 (ip), vehicle: Klucel (hydroxypropylcellulose) (HPC)
[8] = dose: 3.12 mg/kg/injection, schedule: Q01DX009 (ip), vehicle: Klucel (hydroxypropylcellulose) (HPC)
[9] = dose: 6.25 mg/kg/injection, schedule: Q01DX009 (ip), vehicle: Klucel (hydroxypropylcellulose) (HPC)
[10] = dose: 6.25 mg/kg/injection, schedule: Q01DX009 (ip), vehicle: saline
[11] = dose: 12.5 mg/kg/injection, schedule: Q01DX009 (ip), vehicle: saline
[12] = dose: 50.0 mg/kg/injection, schedule: Q01DX009 (ip), vehicle: saline
[13] = dose: 25.0 mg/kg/injection, schedule: Q01DX009 (ip), vehicle: saline
[14] = dose: 50.0 mg/kg/injection, schedule: Q01DX009 (ip), vehicle: Klucel (hydroxypropylcellulose) (HPC)
[15] = dose: 400.0 mg/kg/injection, schedule: Q01DX009 (ip), vehicle: Klucel (hydroxypropylcellulose) (HPC)
[16] = dose: 100.0 mg/kg/injection, schedule: Q04DX003 (ip), vehicle: Klucel (hydroxypropylcellulose) (HPC)
[17] = dose: 200.0 mg/kg/injection, schedule: Q04DX003 (ip), vehicle: Klucel (hydroxypropylcellulose) (HPC)
[18] = dose: 400.0 mg/kg/injection, schedule: Q04DX003 (ip), vehicle: Klucel (hydroxypropylcellulose) (HPC)
[19] = dose: 50.0 mg/kg/injection, schedule: Q01DX009 (ip), vehicle: saline with Tween-80
[20] = dose: 100.0 mg/kg/injection, schedule: Q01DX009 (ip), vehicle: saline with Tween-80
[21] = dose: 200.0 mg/kg/injection, schedule: Q01DX009 (ip), vehicle: saline with Tween-80
[22] = dose: 400.0 mg/kg/injection, schedule: Q01DX009 (ip), vehicle: saline with Tween-80
[23] = dose: 12.5 mg/kg/injection, schedule: Q01DX009 (ip), vehicle: saline with Tween-80
[24] = dose: 25.0 mg/kg/injection, schedule: Q01DX009 (ip), vehicle: saline with Tween-80

Measured: T/C

CC(C)(C)OC(=O)NC(CCCCNC(=O)C(F)(F)F)C(=O)ON1C(=O)CCC1=O (stereo not given)
inactive: dose: 25.0 mg/kg/injection, schedule: Q04DX003 (ip), vehicle: saline with Tween-80 114 % of control | dose: 50.0 mg/kg/injection, schedule: Q04DX003 (ip), vehicle: saline with Tween-80 115 % of control | dose: 100.0 mg/kg/injection, schedule: Q04DX003 (ip), vehicle: saline with Tween-80 90 % of control

COc1cc(C2C3=C(CC(C)(C)CC3=O)N(CC(=O)O)C3=C2C(=O)CC(C)(C)C3)ccc1O
inactive: [1] 103 % of control | [2] 101 % of control | dose: 200.0 mg/kg/injection, schedule: Q01DX009 (ip), vehicle: water 115 % of control

CCCCCCCCCCC(O)CN1CCN(c2ccc(C)cc2)CC1 (stereo not given)
inactive: [3] 92 % of control | [4] 105 % of control | [5] 86 % of control

CC(=O)O[C@H]1[C@H]2O[C@]23[C@@H]2CC[C@@H]4C[C@@H](O)CC[C@]4(C)[C@H]2CC[C@]3(C)[C@H]1c1ccc(=O)oc1
inactive: dose: 3.75 mg/kg/injection, schedule: Q01DX009 (ip), vehicle: saline with Tween-80 92 % of control | dose: 7.5 mg/kg/injection, schedule: Q01DX009 (ip), vehicle: saline with Tween-80 90 % of control

CCOC(=O)C(Cc1c[nH]c2cc(N)ccc12)(NC(C)=O)C(=O)OCC
inactive: [6] 89 % of control | [5] 87 % of control

C=CS(C=C)=NS(=O)(=O)c1ccc(C)cc1
inactive: [7] 95 % of control and 108 % of control | [8] 95 % of control and 101 % of control | [9] 97 % of control and 98 % of control | [3] 107 % of control and 110 % of control | [4] 88 % of control and 95 % of control

O=C(CCCN1CCC(O)(c2ccc(Cl)cc2)CC1)c1ccc(F)cc1
inactive: dose: 3.12 mg/kg/injection, schedule: Q01DX009 (ip), vehicle: saline 99 % of control | [10] 114 % of control | [11] 102 % of control | [12] 99 % of control

CN1CCC=C(CN2c3ccccc3Sc3ccccc32)C1
inactive: [13] 104 % of control | [12] 106 % of control

O=P(NC12CC3CC(CC(C3)C1)C2)(N1CC1)N1CC1
inactive: dose: 4.4 mg/kg/injection, schedule: Q01DX009 (ip), vehicle: Klucel (hydroxypropylcellulose) (HPC) 100 % of control | dose: 6.6 mg/kg/injection, schedule: Q01DX009 (ip), vehicle: Klucel (hydroxypropylcellulose) (HPC) 110 % of control

Nc1c(Cl)cc(C(=O)NC2CC2)cc1Cl
inactive: [10] 92 % of control | [11] 102 % of control | [13] 113 % of control | [12] 97 % of control

CC(=O)Oc1cc(C)c(OC(C)=O)c2ccccc12
inactive: [14] 94 % of control | [6] 88 % of control

CC(=O)CC(=O)Nc1ccc(C)c(C)c1
inactive: dose: 100.0 mg/kg/injection, schedule: Q01DX009 (ip), vehicle: saline 92 % of control | dose: 200.0 mg/kg/injection, schedule: Q01DX009 (ip), vehicle: saline 89 % of control | dose: 400.0 mg/kg/injection, schedule: Q01DX009 (ip), vehicle: saline 94 % of control

Nc1nc(N)c2c(Cl)c(CNc3ccc(Cl)c(Cl)c3)ccc2n1
inactive: dose: 0.5 mg/kg/injection, schedule: Q01DX009 (ip), vehicle: saline with Tween-80 98 % of control | dose: 1.0 mg/kg/injection, schedule: Q01DX009 (ip), vehicle: saline with Tween-80 96 % of control | dose: 2.0 mg/kg/injection, schedule: Q01DX009 (ip), vehicle: saline with Tween-80 113 % of control | dose: 4.0 mg/kg/injection, schedule: Q01DX009 (ip), vehicle: saline with Tween-80 107 % of control

NC(=S)N/N=C\c1ncnc2ccccc12
inactive: [9] 124 % of control

COC1(OC)C2(Cl)C(Cl)=C(Cl)C1(Cl)C1C(=O)C=CC(=O)C12 (stereo not given)
inactive: [7] 91 % of control | [8] 90 % of control | [9] 90 % of control | [3] 90 % of control | [4] 91 % of control | [15] 88 % of control

COC(=O)C(=O)[C@@H](O)[C@H](O)[C@@H](O)CO
inactive: [16] 94 % of control | [17] 94 % of control | [18] 100 % of control

CCNC1=C(N2CC2)C(=O)C(NCC)=C(N2CC2)C1=O
inactive: dose: 0.37 mg/kg/injection, schedule: Q01DX009 (ip), vehicle: saline 112 % of control | dose: 0.75 mg/kg/injection, schedule: Q01DX009 (ip), vehicle: saline 104 % of control and 116 % of control

CN(C)C(=S)S
inactive: [4] 118 % of control | dose: 25.0 mg/kg/injection, schedule: Q04DX003 (ip), vehicle: Klucel (hydroxypropylcellulose) (HPC) 100 % of control | [14] 103 % of control | [19] 89 % of control | dose: 50.0 mg/kg/injection, schedule: Q04DX003 (ip), vehicle: Klucel (hydroxypropylcellulose) (HPC) 105 % of control | [6] 91 % of control | [20] 105 % of control | [16] 94 % of control | [5] 116 % of control | [21] 98 % of control | [17] 94 % of control | [15] 98 % of control | [22] 89 % of control | [18] 97 % of control

CC1CCC[N-]C1.CC1CCC[N-]C1.CC1CCC[N-]C1.CC1CCC[N-]C1.[Cl][Rh][Cl] (stereo not given)
inactive: dose: 3.0 mg/kg/injection, schedule: Q01DX009 (ip), vehicle: Klucel (hydroxypropylcellulose) (HPC) 111 % of control | dose: 6.0 mg/kg/injection, schedule: Q01DX009 (ip), vehicle: Klucel (hydroxypropylcellulose) (HPC) 110 % of control | dose: 12.0 mg/kg/injection, schedule: Q01DX009 (ip), vehicle: Klucel (hydroxypropylcellulose) (HPC) 115 % of control

Cc1ccc([N+](=O)[O-])cc1NC(=O)COc1ccc(Cl)cc1Cl
inactive: dose: 75.0 mg/kg/injection, schedule: Q01DX009 (ip), vehicle: Klucel (hydroxypropylcellulose) (HPC) 90 % of control | dose: 150.0 mg/kg/injection, schedule: Q01DX009 (ip), vehicle: Klucel (hydroxypropylcellulose) (HPC) 88 % of control | dose: 300.0 mg/kg/injection, schedule: Q01DX009 (ip), vehicle: Klucel (hydroxypropylcellulose) (HPC) 86 % of control

CCCCCCCCCCCCCCCc1ccc(C(=O)C[n+]2ccccc2)cc1
inactive: dose: 3.12 mg/kg/injection, schedule: Q01DX009 (ip), vehicle: saline with Tween-80 102 % of control | dose: 6.25 mg/kg/injection, schedule: Q01DX009 (ip), vehicle: saline with Tween-80 100 % of control | [23] 95 % of control | [24] 93 % of control

CCOC(=O)C(C=O)(NC(=O)c1ccccc1)OCC (stereo not given)
inactive: [20] 102 % of control | [21] 97 % of control | [22] 100 % of control

CC1(c2ccccc2)C(C#N)C(=O)NC(=O)C1C#N (stereo not given)
inactive: [19] 89 % of control | [20] 89 % of control | [21] 89 % of control

C[N+](C)(C)C1CC1
inactive: [11] 105 % of control | [13] 102 % of control | [12] 102 % of control

S=C1SCN(Cc2ccccc2)CN1Cc1ccccc1
inactive: [4] 102 % of control and 120 % of control | [14] 102 % of control and 108 % of control | [6] 90 % of control and 97 % of control and 105 % of control

CC1(C)OC(CI)C(COS(C)(=O)=O)O1 (stereo not given)
inactive: [23] 97 % of control | [24] 97 % of control | [19] 96 % of control and 100 % of control

CCC1(CC)CCC(Br)C(Br)C1 (stereo not given)
inactive: [20] 95 % of control | [21] 105 % of control | [22] 102 % of control

O=C1Cc2cc3c(cc2C=C2CCCN12)OCO3
inactive: dose: 12.5 mg/kg/injection, schedule: Q01DX009 (ip), vehicle: water 117 % of control | dose: 25.0 mg/kg/injection, schedule: Q01DX009 (ip), vehicle: water 108 % of control | [1] 102 % of control | [2] 107 % of control

CCOC12c3ccccc3N(S(C)(=O)=O)C(C)C1C2(Br)Br (stereo not given)
inactive: dose: 75.0 mg/kg/injection, schedule: Q04DX003 (ip), vehicle: Klucel (hydroxypropylcellulose) (HPC) 104 % of control | dose: 150.0 mg/kg/injection, schedule: Q04DX003 (ip), vehicle: Klucel (hydroxypropylcellulose) (HPC) 87 % of control | dose: 300.0 mg/kg/injection, schedule: Q04DX003 (ip), vehicle: Klucel (hydroxypropylcellulose) (HPC) 107 % of control
